The text below walks through data of patent US5792656A (priority 1995, dated 1998).

Data set [1] concerns the target T1, rat islet GLUT-2 glucose transporter expressed in AtT-20ins cells (lines CGT-5, CGT-6) (Rattus norvegicus, UniProt P12336).
T1 sequence (P12336 1-522): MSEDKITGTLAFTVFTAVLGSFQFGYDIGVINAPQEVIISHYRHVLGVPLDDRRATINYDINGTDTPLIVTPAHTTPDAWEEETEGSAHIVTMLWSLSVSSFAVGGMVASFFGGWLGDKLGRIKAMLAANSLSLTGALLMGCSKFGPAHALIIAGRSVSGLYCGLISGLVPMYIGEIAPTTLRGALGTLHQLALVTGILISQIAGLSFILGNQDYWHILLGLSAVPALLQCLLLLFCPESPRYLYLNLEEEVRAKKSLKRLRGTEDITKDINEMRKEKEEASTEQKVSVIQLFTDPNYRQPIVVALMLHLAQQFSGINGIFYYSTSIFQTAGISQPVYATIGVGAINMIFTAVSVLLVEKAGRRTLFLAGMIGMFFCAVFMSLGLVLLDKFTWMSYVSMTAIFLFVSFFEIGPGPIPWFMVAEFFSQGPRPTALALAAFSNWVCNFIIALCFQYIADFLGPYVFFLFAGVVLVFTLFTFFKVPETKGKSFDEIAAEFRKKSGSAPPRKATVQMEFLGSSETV

In data set [2] the test system is hexokinase (low Km Hexokinases I, II, and III). The note with it: cited from earlier work.
In data set [3] the target is T2, high Km glucose transport activity (GLUT-2) of isolated, dispersed islets of Langerhans (Rattus norvegicus, UniProt P12336).
T2 construct: host or cells: isolated, dispersed islets of Langerhans (Johnson et al., 1990a)
T2 sequence (P12336 1-522): T1 sequence (P12336 1-522)
The note with it: cited from earlier work.

For data set [4], the system named is GLUT-2 transfected AtT-20ins cells (line CGT-6). Briefly: cells. Particulars: Mus musculus, 3 h, read-out: maximal stimulation of insulin release relative to 0 mM glucose.
A further data set deals with parental AtT-20ins cells. Briefly: Insulin secretion, static 3 hour incubation, parental cells. Particulars: 0-20 mM glucose, 3 hours static incubation. Format: cell-based.
The target of data set [5] is T3, glucokinase (Hexokinase IV) (Homo sapiens, UniProt P35557).
T3 sequence (P35557 1-465): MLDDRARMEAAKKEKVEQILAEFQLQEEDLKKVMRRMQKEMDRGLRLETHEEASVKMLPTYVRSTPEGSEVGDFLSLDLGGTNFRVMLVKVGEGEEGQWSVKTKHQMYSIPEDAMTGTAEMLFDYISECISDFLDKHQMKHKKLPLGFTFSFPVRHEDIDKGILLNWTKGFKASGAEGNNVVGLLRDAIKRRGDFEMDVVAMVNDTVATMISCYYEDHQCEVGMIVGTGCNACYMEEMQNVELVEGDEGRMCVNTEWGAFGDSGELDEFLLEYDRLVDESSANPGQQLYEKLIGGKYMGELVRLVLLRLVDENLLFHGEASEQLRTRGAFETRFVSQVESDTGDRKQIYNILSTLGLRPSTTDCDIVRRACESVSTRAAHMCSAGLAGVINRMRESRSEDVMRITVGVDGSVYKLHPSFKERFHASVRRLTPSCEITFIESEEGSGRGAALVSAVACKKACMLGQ
The note with it: read-out: Km for glucose; cited from earlier work.

The subject of the next data set is RIN 1046-38 cells. The note with it: RIN 1046-38 cells (Clark, et al., 1990); cited from earlier work.
Data set [6] relates to CGT-6 (GLUT-2 expressing AtT-20ins) cells. Briefly: cells.
The target of data set [7] is T4, glucokinase, islet isoform (Rattus norvegicus, UniProt P17712).
T4 sequence (P17712 1-465): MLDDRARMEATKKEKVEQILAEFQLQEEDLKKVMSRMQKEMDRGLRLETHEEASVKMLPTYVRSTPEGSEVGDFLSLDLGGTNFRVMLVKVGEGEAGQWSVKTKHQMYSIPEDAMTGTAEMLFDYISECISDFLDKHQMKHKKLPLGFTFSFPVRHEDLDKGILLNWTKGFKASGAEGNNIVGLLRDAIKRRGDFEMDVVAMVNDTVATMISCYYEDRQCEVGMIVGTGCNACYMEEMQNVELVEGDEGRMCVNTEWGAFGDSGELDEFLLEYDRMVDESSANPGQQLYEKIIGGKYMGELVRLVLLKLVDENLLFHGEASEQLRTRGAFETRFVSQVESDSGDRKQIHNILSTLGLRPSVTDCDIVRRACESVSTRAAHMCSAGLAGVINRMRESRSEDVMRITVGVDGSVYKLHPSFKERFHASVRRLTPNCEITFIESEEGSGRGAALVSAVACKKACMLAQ
Particulars: read-out: Km for glucose; cited from earlier work.

Data set [8] concerns the target T5, GLUT-1 low Km glucose transporter of untransfected parental AtT-20ins cells (Mus musculus, UniProt P17809).
T5 sequence (P17809 1-492): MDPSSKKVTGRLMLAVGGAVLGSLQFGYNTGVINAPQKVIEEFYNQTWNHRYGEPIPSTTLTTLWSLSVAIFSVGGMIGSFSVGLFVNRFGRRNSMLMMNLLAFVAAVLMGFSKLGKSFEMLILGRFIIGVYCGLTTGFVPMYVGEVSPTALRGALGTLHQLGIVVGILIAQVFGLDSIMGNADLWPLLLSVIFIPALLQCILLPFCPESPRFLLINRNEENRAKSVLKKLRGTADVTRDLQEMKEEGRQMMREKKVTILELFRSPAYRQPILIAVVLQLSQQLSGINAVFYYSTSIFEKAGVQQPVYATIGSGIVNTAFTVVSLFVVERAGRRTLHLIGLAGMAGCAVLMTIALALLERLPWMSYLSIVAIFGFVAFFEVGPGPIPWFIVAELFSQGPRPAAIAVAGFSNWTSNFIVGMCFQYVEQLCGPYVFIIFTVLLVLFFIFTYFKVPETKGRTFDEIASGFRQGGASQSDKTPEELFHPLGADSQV
Briefly: Glucose transport (3-O-methyl glucose uptake) in untransfected parental AtT-20ins cells. The data set is classed as cell-based. Particulars: untransfected parental AtT-20ins line.

Data set [9] concerns the target T6, glucokinase, liver isoform (Rattus norvegicus, UniProt P17712).
T6 sequence (P17712 1-465 isoform P17712-3): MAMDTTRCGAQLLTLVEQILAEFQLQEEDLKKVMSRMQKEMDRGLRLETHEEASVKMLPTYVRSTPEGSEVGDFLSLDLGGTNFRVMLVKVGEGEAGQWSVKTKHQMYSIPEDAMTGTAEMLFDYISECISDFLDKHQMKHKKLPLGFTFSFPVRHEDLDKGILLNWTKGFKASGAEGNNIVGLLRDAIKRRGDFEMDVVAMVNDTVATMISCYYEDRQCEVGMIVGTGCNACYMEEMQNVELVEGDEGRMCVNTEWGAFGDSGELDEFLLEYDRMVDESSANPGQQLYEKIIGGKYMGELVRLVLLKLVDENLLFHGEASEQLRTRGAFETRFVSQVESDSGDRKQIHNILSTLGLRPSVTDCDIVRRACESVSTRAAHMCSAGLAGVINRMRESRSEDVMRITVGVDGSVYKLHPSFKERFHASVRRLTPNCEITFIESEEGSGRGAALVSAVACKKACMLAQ
Particulars: read-out: Km for glucose; cited from earlier work.

Substrate in data set [10]: OC[C@H]1OC(O)[C@H](O)[C@@H](O)[C@@H]1O
Briefly: cells, lysate or membranes. The note with it: 3-O-methyl glucose uptake, 37.0 °C.

[11] abbreviates: lines CGT-5, CGT-6 stated together, 3-O-methyl glucose uptake.

Several values for one entry are separate records, joined by “and”; a condition that tells them apart may be missing. Identical values can stand only once. Entries after “also recorded” stand apart in the source; their conditions may differ. Like-named read-outs stand apart in the source and are kept apart here.

For orientation: Km means the substrate concentration at which the rate is half of its maximum. On to `OC[C@H]1OC(O)[C@H](O)[C@@H](O)[C@@H]1O` (some centres unmarked) [glucose], for which the Vmax in [1] (line CGT-5, Lineweaver-Burke analysis) is recorded as 25 mmoles/min/liter cell space; in data set [1] (line CGT-6, Lineweaver-Burke analysis), 17 mmoles/min/liter cell space; in [1] (setting [11]), 19 mmoles/min/liter cell space; in data set [3] (dispersed islets (Johnson, et al., 1990a)), 24 mmoles/min/liter cell space; in data set [8], 0.5 mmoles/min/liter cell space. The “estimated Km for glucose” value in data set [1] (setting [11]) is recorded as 18 mM. In addition, the Km in data set [2] (read-out: Km for glucose, Hexokinases I, II, and III) is around 0.05 mM; in data set [3] (read-out: Km for glucose, dispersed islets (Johnson, et al., 1990a)), 18 mM; in data set [5], ~8 mM and 8 to 10 mM; in data set [7] it was 8 to 10 mM and ~10 mM; in data set [9] it was 8 to 10 mM. Also, the maximal fold induction in [4] is around 2.5. Besides, the “effect of glucose on insulin release” value in the data set on parental AtT-20ins cells is on record as “no significant effect”. In the data set with RIN 1046-38 cells, the “glucose concentration at which stimulation of insulin release is maximal” value is 0.5 mM. Besides, the fold induction at 5000 µM in data set [6] (5 min, read-out: insulin secretion second plateau above pre-glucose level) came out at 3; in data set [6] (read-out: increase in insulin release, first phase, over baseline without glucose), 10.
Consider `O=P(O)(O)OC[C@H]1OC(O)[C@H](O)[C@@H](O)[C@@H]1O` (some centres unmarked) [glucose-6-phosphate, reference compound], for which, in [2] (10 mM glucose-6-phosphate), the “inhibition of hexokinase by glucose-6-phosphate” value is given as “potently inhibits; also recorded: potent inhibitor”.

B1: GLUT-1 low Km glucose transporter of untransfected parental AtT-20ins cells (Mus musculus) (protein)
chain: T5 sequence (P17809 1-492)
For B1, the Km in data set [10] (other: untransfected parental AtT-20ins line) is 2 mM.

B2: rat islet GLUT-2 glucose transporter expressed in AtT-20ins cells (lines CGT-5, CGT-6) (Rattus norvegicus) (protein)
chain: T1 sequence (P12336 1-522)
With B2, the Km worked out at 16 mM in data set [10] (other: line CGT-5, Lineweaver-Burke analysis) and 17 mM in [10] (other: line CGT-6, Lineweaver-Burke analysis).
